Laboratory results from patent US20120149708A1, “MODULATORS OF VIRAL TRANSCRIPTION, AND METHODS AND COMPOSITIONS THEREWITH” (George Mason University, priority 2010, published 2012).

Assays:
Format in all cases: cell-based
CEM cells (uninfected) = experiment: Cell viability by trypan blue exclusion, 48 hours; conditions: for % Inhibition (percent dead cells) CEM: 10 μM, 48 hours
Method: (§1) TZM-bl cell lines were grown in Dulbecco's modified Eagle's medium supplemented with fetal bovine serum (FBS) (10%, v/v), 2 mM L-glutamine, and antibiotics (penicillin 100 U/ml, streptomycin […]) (cDMEM). HCT116 WT and HCT116 Dicer−/−cell lines were grown in McCoy's medium supplemented with FBS (10%, v/v), 2mM L-glutamine, and antibiotics (penicillin 100 U/ml, streptomycin […]). CEM, ACH2, Jurkat and U937 cells were grown in RPMI 1640 supplemented with FBS, L-glutamine, and antibiotics (penicillin 100 U/ml, streptomycin […]). All cell lines were maintained at 37° C. in 5% (v/v) CO2.
(§2) ACH2 cells are infected with HIV-1; TZM-bl cells contain a stably-integrated HIV-1 LTR-Luciferase reporter; CEM, Jurkat, and U937 cells are uninfected. Transfections were carried out using Attractene (Qiagen) lipid reagent. Cells were cultured to confluence and pelleted at 4° C. for 15 min at 3,000 rpm. The cell pellets were washed twice with 25 ml of phosphate-buffered saline (PBS) with Ca2+ and Mg2+ (Quality Biological) and centrifuged once more. Cell pellets were resuspended in lysis buffer (50 mM Tris-HCl, pH 7.5, 120 mM NaCl, 5 mM EDTA, 0.5%, v/v, NP-40, 50 mM NaF, 0.2 mM Na3VO4, 1 mM DTT, one complete protease cocktail tablet/50 ml (Roche) and incubated on ice for 20 min, with gentle vortexing every 5 min. Cell lysates were transferred to eppendorf tubes and were centrifuged at 10,000 rpm for 10 min. Supernatants were transferred to a fresh tube where protein concentrations were determined using Bio-Rad protein assay (Bio-Rad, Hercules, Calif.).
(§3) In brief, the inhibition studies were carried out as follows. HIV-1 infected cells ACH2, J1.1, OM10.1, U1 and uninfected CEM, Jurkat T-cells, and U937 were cultured in media. The appropriate inhibitor was added at a concentration of 10 μM. Cells were treated for 48 hours and cell viability was determined using trypan blue exclusion method. Results of such a screen for 19 inhibitors is shown in Table 1 where percent dead cells are indicated each drug tested.
(§4) Again HIV-1 infected and uninfected cells were treated with eighteen Formula I compounds at a drug concentration of 50 nm. Forty-eight hours after treatment, cytotoxicity was determined by trypan blue dye exclusion. Percent inhibition was calculated after obtaining the cell density for each well of the tissue culture plate at the end of 48 hrs.

U937 cells (uninfected) = experiment: Cell viability by trypan blue exclusion, 48 hours; conditions: for % Inhibition (percent dead cells) U937: 10 μM, 48 hours
Method: as §1, §2, §3, §4

[1] = test system: Jurkat T-cells (uninfected); experiment: Cell viability by trypan blue exclusion, 48 hours; conditions: for % Inhibition (percent dead cells) Jurkat: 10 μM, 48 hours
Method: as §1, with “CO2. […]” for “CO2.”
as §3, §4

[2] = test system: ACH2 cells (HIV-1 infected); experiment: Cell viability by trypan blue exclusion, 48 hours; conditions: HIV-1 infected; for % Inhibition (percent dead cells) ACH2: 10 μM, 48 hours
Method: as §1, with “CO2. […]” for “CO2.”
as §3, §4

[3] = test system: U1 cells (HIV-1 infected); experiment: Cell viability by trypan blue exclusion, 48 hours; conditions: HIV-1 infected; for % Inhibition (percent dead cells) U1: 10 μM, 48 hours
Method: as §3, §4

[4] = test system: J1.1 cells (HIV-1 infected); experiment: Cell viability by trypan blue exclusion, 48 hours; conditions: HIV-1 infected; for % Inhibition (percent dead cells) J1.1: 10 μM, 48 hours
Method: as §3, §4

[5] = test system: OM10.1 cells (HIV-1 infected); experiment: Cell viability by trypan blue exclusion, 48 hours; conditions: HIV-1 infected; for % Inhibition (percent dead cells) OM10.1: 10 μM, 48 hours
Method: as §3, §4

[6] = test system: HIV-1 infected and uninfected cells; experiment: Classification of inhibitors by effect on viability of infected versus uninfected cells; conditions: high
Text: The inhibitors were classified into three categories: high, moderate or poor, according to their effect on cellular viability in both HIV-1 infected and uninfected cells. Among the compounds tested in this study, CR8, a purine analog bearing a 2-pyridyl group para to the phenyl ring position 6 of the purine was the most promising drug candidate that killed HIV-1 infected cells, while having little or no effect on the death of uninfected cells.

HIV-1 LTR-CAT reporter = experiment: CAT assay of Tat-mediated transactivation in HCT116 WT and Dicer-/- cells; conditions: HCT116 WT (Dicer) versus Dicer-/-; 48 hrs; Flavopiridol, CR8#13, F07#13 100 nm, 9AA 1000 nm
Method: Six hours later, the transfected cells were treated with DMSO, Flavopirodol (100 nm), CR8#13 (100 nm), F07#13 (100 nm), and 9AA (1000 nm). Treated cells were incubated in complete DMEM for 48 hrs at 37° C. Cells were harvested and cell extracts were used for CAT analysis. One tenth the amount of HCT116 Dicer−/−extract compared to HCT116 WT was used for CAT analysis. […] The corresponding bar graphs in A and B show values that represent the percentage of conversion of the [14C] chloramphenicol substrate in the CAT assay.
Various cells lines were transfected with the HIV-1 LTRCAT plasmid and pc-Tat to initiate the LTR transcription, and subsequently subjected to various drug treatments. After 48 hrs, cells were lysed and CAT assays were performed as previously described (Guendel et al, 2009; Van Duyne et al, 2008; Easley et al, 2010).
To evaluate the role on microRNA machinery in inhibition of viral transcription activity, HCT116 colon carcinoma cell lines that either contained a WT Dicer (HCT116 WT) or lacked the Dicer protein (HCT116 Dicer-−/−) were first transfected with the HIV-1 LTR-CAT reporter construct. The HIV-1 LTR transcription was activated with pc-Tat and following incubation for 6 hours was treated with DMSO (negative control), Flavopiridol (positive control), CR8#13, F07#13, or 9AA.
Cells were harvested 48 hrs-post treatment and processed for CAT assays (FIGS. 3A and B). […] Based on this observation the inventors hypothesize that the microRNA machinery, Dicer and Drosha, plays an inhibitory role in HIV-1 transcription.

[7] = 10 μM, moderate or poor by effect on viability of infected and uninfected cells

`CN1C(=O)C(=C2Nc3ccccc3C2=NO)c2cccc(Br)c21` [1-methyl-7-bromo-indirubin-3′-oxime] was tested, and the “% Inhibition (percent dead cells) CEM” value (CEM cells (uninfected)) was “− (1-5%)”, the “% Inhibition (percent dead cells) U937” value (U937 cells (uninfected)) was “− (1-5%)” and the “% Inhibition (percent dead cells) Jurkat” value [1] was “− (1-5%)”. For the same compound, the “% Inhibition (percent dead cells) ACH2” value [2] was “− (1-5%)”, the “% Inhibition (percent dead cells) U1” value [3] was “− (1-5%)” and the “% Inhibition (percent dead cells) J1.1” value [4] was “− (1-5%)”. The “% Inhibition (percent dead cells) OM10.1” value [5] was “− (1-5%)” and the Selectivity [6, 7] was “Poor”.

In the case of `CCOc1ccnc2[nH]cc(-c3ccnc(N)n3)c12` [Meriolin4], the “% Inhibition (percent dead cells) CEM” value (CEM cells (uninfected)) is reported as “+ (~25%)”, the “% Inhibition (percent dead cells) U937” value (U937 cells (uninfected)) is reported as “++ (~50%)” and the “% Inhibition (percent dead cells) Jurkat” value [1] is reported as “++ (~50%)”. For the same compound, the “% Inhibition (percent dead cells) ACH2” value [2] was “+++ (~75%)”, the “% Inhibition (percent dead cells) U1” value [3] was “+++ (~75%)” and the “% Inhibition (percent dead cells) J1.1” value [4] was “+++ (~75%)”. The “% Inhibition (percent dead cells) OM10.1” value [5] was “+++ (~75%)” and the Selectivity [6, 7] was “High”.

For `Nc1c2ccccc2nc2ccccc12` [9AA], the “inhibition of viral transcription (CAT)” value (HIV-1 LTR-CAT reporter) was “only moderate inhibitory effects”.

For `Nc1nccc(-c2c3c(O)ccnc3n3c(N)nccc23)n1` [Variollin B], the “% Inhibition (percent dead cells) CEM” value (CEM cells (uninfected)) was “− (1-5%)”, the “% Inhibition (percent dead cells) U937” value (U937 cells (uninfected)) was “− (1-5%)” and the “% Inhibition (percent dead cells) Jurkat” value [1] was “− (1-5%)”. The “% Inhibition (percent dead cells) ACH2” value [2] was “++ (~50%)”, the “% Inhibition (percent dead cells) U1” value [3] was “− (1-5%)” and the “% Inhibition (percent dead cells) J1.1” value [4] was “+ (~25%)”. For the same compound, the “% Inhibition (percent dead cells) OM10.1” value [5] was “− (1-5%)” and the Selectivity [6, 7] was “Moderate”.

`CC[C@H](CO)Nc1nc(Nc2cccc(-c3ccccn3)c2)c2ncn(C(C)C)c2n1` [R-DRF053] was tested, and the “% Inhibition (percent dead cells) CEM” value (CEM cells (uninfected)) was “− (1-5%)”, the “% Inhibition (percent dead cells) U937” value (U937 cells (uninfected)) was “− (1-5%)” and the “% Inhibition (percent dead cells) Jurkat” value [1] was “− (1-5%)”. For the same compound, the “% Inhibition (percent dead cells) ACH2” value [2] was “− (1-5%)”, the “% Inhibition (percent dead cells) U1” value [3] was “− (1-5%)” and the “% Inhibition (percent dead cells) J1.1” value [4] was “− (1-5%)”. The “% Inhibition (percent dead cells) OM10.1” value [5] was “− (1-5%)” and the Selectivity [6, 7] was “Poor”.

For `CCCOc1ccnc2[nH]cc(-c3ccnc(N)n3)c12` [Meriolin5], the “% Inhibition (percent dead cells) CEM” value (CEM cells (uninfected)) was “− (1-5%)”, the “% Inhibition (percent dead cells) U937” value (U937 cells (uninfected)) was “++ (~50%)” and the “% Inhibition (percent dead cells) Jurkat” value [1] was “− (1-5%)”. For the same compound, the “% Inhibition (percent dead cells) ACH2” value [2] was “+++ (~75%)”, the “% Inhibition (percent dead cells) U1” value [3] was “− (1-5%)” and the “% Inhibition (percent dead cells) J1.1” value [4] was “++ (~50%)”. For the same compound, the “% Inhibition (percent dead cells) OM10.1” value [5] was “++++ (~90%)” and the Selectivity [6, 7] was “High”.

For `CC(C)Oc1ccnc2[nH]cc(-c3ccnc(N)n3)c12` [Meriolin 6], the “% Inhibition (percent dead cells) CEM” value (CEM cells (uninfected)) was “− (1-5%)”, the “% Inhibition (percent dead cells) U937” value (U937 cells (uninfected)) was “++ (~50%)” and the “% Inhibition (percent dead cells) Jurkat” value [1] was “− (1-5%)”. The “% Inhibition (percent dead cells) ACH2” value [2] was “+++ (~75%)”, the “% Inhibition (percent dead cells) U1” value [3] was “− (1-5%)” and the “% Inhibition (percent dead cells) J1.1” value [4] was “+++ (~75%)”. The “% Inhibition (percent dead cells) OM10.1” value [5] was “++++ (~90%)” and the Selectivity [6, 7] was “High”.

In the case of `CC(C)c1cnn2c(NCc3ccc(-c4ccccn4)cc3)nc(N[C@H](CO)C(C)O)nc12` (stereo partly drawn) [MRT3-007, (2R, 3R)-2-(8-isopropyl-4-(4-(pyridine-2-yl)benzylamino)pyrazolo[1,5-α]-1,3,5-triazine-2-ylamino)butane-1,3-diol], the inhibition at 0.05 µM (CEM cells (uninfected); Homo sapiens, CCRF-CEM, 48 h, 50 nM, 48 hrs, read-out: Inhibition Percentage CEM) is reported as 25%, the inhibition at 0.05 µM (U937 cells (uninfected); Homo sapiens, U-937, 50 nM, 48 hrs, read-out: Inhibition Percentage U937) is reported as 25% and the inhibition at 0.05 µM ([1]; Homo sapiens, Jurkat, 50 nM, 48 hrs, read-out: Inhibition Percentage Jurkat) is reported as 25%. It also gave an inhibition at 0.05 µM ([2]; Human immunodeficiency virus 1, ACH-2, 48 h, 50 nM, 48 hrs, read-out: Inhibition Percentage ACH2) of 50%, an inhibition at 0.05 µM ([3]; Human immunodeficiency virus 1, 48 h, 50 nM, 48 hrs, read-out: Inhibition Percentage U1) of 50% and an inhibition at 0.05 µM ([4]; Human immunodeficiency virus 1, 48 h, 50 nM, 48 hrs, read-out: Inhibition Percentage J1.1) of 50%. The inhibition at 0.05 µM ([5]; Human immunodeficiency virus 1, 50 nM, 48 hrs, read-out: Inhibition Percentage OM10.1) was 50% and the Selectivity ([6]; 50 nM, moderate or poor) was “Moderate”.

With `CC[C@H](CO)Nc1nc(NCc2ccc(-c3ccccn3)cc2)n2ncc(C(C)C)c2n1` [MRT3-028, R-2-(8-isopropyl-4-(4-(pyridine-2-yl)benzylamino)pyrazolo[1,5-α]-1,3,5-triazine-2-ylamino)butan-1-ol] the “Inhibition Percentage CEM” value (CEM cells (uninfected); 50 nM, 48 hrs) was “++ (~50%)”, the “Inhibition Percentage ACH2” value ([2]; 50 nM, 48 hrs) was “+++ (~75%)” and the “Inhibition Percentage U1” value ([3]; 50 nM, 48 hrs) was “+ (~25%)”. For the same compound, the “Inhibition Percentage J1.1” value ([4]; 50 nM, 48 hrs) was “+++ (~75%)” and the Selectivity ([6]; 50 nM, moderate or poor) was “High”.

For `COc1ccnc2[nH]cc(-c3ccnc(N)n3)c12` [Meriolin 3], the “% Inhibition (percent dead cells) CEM” value (CEM cells (uninfected)) was “− (1-5%)”, the “% Inhibition (percent dead cells) U937” value (U937 cells (uninfected)) was “− (1-5%)” and the “% Inhibition (percent dead cells) Jurkat” value [1] was “− (1-5%)”. The “% Inhibition (percent dead cells) ACH2” value [2] was “++ (~50%)”, the “% Inhibition (percent dead cells) U1” value [3] was “− (1-5%)” and the “% Inhibition (percent dead cells) J1.1” value [4] was “+ (~25%)”. For the same compound, the “% Inhibition (percent dead cells) OM10.1” value [5] was “− (1-5%)” and the Selectivity [6, 7] was “Moderate”.
